Laboratory results as given in US11912703B2, “6-azaindole compounds” (BRISTOL-MYERS SQUIBB COMPANY, priority 2017, dated 2024).
Like-named read-outs stand apart in the source and are kept apart here.

Tests used:
human TLR9 = human TLR9 (Homo sapiens (Human), UniProt Q9NR96); assay: TLR9 inhibition reporter assay (HEK-Blue SEAP);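 also: SEAP driven by IFN-β minimal promoter carrying five NF-κB and AP-1 sites, 22 h at 37 °C, compounds 0.05 nM–50 µM, inhibition scaled between agonist-plus-DMSO and reference-inhibitor wells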
Sequence of human TLR9 (Q9NR96 26-1032): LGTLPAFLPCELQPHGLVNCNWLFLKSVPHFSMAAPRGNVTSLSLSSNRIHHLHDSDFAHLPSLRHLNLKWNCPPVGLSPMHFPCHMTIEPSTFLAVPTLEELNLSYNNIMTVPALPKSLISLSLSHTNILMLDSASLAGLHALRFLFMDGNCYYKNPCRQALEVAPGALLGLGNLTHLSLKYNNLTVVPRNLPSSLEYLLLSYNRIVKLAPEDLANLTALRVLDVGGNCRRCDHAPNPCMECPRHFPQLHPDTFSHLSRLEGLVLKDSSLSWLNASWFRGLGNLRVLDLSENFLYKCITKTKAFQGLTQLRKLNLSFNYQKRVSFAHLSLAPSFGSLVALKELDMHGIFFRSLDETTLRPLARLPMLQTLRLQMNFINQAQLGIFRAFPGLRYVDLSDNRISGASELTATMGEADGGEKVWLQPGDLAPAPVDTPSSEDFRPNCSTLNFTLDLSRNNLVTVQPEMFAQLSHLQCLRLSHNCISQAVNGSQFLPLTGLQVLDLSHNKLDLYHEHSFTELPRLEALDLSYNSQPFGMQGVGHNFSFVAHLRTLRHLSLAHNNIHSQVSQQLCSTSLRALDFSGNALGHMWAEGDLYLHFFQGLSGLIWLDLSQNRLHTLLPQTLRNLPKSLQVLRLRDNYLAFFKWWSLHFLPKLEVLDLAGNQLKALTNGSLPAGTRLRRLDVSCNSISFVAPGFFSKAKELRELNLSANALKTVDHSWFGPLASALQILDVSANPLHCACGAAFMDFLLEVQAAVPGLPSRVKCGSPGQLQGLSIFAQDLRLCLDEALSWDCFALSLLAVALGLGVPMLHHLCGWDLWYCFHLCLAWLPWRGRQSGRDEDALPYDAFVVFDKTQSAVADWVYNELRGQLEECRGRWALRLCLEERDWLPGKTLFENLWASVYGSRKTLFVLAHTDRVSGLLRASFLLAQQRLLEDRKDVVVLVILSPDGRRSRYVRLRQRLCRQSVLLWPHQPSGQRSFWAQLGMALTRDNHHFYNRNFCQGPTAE
Experimental: HEK-Blue™-cells (Invivogen) overexpressing human TLR7, TLR8 or TLR9 receptors were used for screening inhibitors of these receptors using an inducible SEAP (secreted embryonic alkaline phosphatase) reporter gene under the control of the IFN-β minimal promoter fused to five NF-κB and AP-1-binding sites. Briefly, cells are seeded into Greiner 384 well plates (15000 cells per well for TLR7, 20,000 for TLR8 and 25,000 for TLR9) and then treated with test compounds in DMSO to yield a final dose response concentration range of 0.05 nM-50 μM. After a 30 minute compound pre-treatment at room temperature, the cells are then stimulated with a TLR7 ligand (gardiquimod at a final concentration of 7.5 μM), TLR8 ligand (R848 at a final concentration of 15.9 μM) or TLR9 ligand (ODN2006 at a final concentration of 5 nM) to activate NF-κB and AP-1 which induce the production of SEAP. After a 22 hour incubation at 37° C., 500 CO2, SEAP levels are determined with the addition of HEK-Blue™ Detection reagent (Invivogen), a cell culture medium that allows for detection of SEAP, according to manufacturer's specifications.

human TLR7 = human TLR7 (Homo sapiens (Human), UniProt Q9NYK1); assay: TLR7 inhibition reporter assay (HEK-Blue SEAP); format: cell-based; details: HEK-Blue cells overexpressing human TLR7, gardiquimod 7.5 μM stimulation
Sequence of human TLR7 (Q9NYK1 27-1049): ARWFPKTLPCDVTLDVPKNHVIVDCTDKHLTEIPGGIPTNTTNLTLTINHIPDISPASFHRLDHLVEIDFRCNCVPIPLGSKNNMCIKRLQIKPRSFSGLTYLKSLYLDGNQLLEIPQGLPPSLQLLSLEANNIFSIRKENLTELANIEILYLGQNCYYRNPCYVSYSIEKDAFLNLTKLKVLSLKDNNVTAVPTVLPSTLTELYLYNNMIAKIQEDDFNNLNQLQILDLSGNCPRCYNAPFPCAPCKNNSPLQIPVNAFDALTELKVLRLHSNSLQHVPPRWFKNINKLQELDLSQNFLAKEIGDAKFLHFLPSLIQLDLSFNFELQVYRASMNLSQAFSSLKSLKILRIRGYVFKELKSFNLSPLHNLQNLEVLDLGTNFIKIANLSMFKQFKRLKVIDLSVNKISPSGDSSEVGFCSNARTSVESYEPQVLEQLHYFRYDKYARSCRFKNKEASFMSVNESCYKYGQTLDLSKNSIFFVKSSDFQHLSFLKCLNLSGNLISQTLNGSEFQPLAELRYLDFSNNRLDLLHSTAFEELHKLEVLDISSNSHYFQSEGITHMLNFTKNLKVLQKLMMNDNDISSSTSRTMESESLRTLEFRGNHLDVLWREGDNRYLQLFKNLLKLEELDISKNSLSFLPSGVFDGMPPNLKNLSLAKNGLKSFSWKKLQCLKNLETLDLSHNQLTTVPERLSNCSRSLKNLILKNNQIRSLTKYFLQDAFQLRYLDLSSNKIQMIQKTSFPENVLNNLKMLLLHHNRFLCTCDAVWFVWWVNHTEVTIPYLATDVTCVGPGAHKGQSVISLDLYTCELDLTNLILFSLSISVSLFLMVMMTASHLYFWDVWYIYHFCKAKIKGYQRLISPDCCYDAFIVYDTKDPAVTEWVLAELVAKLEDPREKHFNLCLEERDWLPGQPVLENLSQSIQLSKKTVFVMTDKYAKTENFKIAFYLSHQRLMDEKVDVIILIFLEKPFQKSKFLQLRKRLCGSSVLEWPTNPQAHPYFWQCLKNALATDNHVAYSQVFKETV

human TLR8 = human TLR8 (Homo sapiens (Human), UniProt Q9NR97); assay: TLR8 inhibition reporter assay (HEK-Blue SEAP);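 also: SEAP driven by IFN-β minimal promoter with five NF-κB and AP-1 sites, compounds tested 0.05 nM to 50 µM, 22 h incubation, inhibition relative to agonist plus DMSO wells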
Sequence of human TLR8 (Q9NR97 27-1041): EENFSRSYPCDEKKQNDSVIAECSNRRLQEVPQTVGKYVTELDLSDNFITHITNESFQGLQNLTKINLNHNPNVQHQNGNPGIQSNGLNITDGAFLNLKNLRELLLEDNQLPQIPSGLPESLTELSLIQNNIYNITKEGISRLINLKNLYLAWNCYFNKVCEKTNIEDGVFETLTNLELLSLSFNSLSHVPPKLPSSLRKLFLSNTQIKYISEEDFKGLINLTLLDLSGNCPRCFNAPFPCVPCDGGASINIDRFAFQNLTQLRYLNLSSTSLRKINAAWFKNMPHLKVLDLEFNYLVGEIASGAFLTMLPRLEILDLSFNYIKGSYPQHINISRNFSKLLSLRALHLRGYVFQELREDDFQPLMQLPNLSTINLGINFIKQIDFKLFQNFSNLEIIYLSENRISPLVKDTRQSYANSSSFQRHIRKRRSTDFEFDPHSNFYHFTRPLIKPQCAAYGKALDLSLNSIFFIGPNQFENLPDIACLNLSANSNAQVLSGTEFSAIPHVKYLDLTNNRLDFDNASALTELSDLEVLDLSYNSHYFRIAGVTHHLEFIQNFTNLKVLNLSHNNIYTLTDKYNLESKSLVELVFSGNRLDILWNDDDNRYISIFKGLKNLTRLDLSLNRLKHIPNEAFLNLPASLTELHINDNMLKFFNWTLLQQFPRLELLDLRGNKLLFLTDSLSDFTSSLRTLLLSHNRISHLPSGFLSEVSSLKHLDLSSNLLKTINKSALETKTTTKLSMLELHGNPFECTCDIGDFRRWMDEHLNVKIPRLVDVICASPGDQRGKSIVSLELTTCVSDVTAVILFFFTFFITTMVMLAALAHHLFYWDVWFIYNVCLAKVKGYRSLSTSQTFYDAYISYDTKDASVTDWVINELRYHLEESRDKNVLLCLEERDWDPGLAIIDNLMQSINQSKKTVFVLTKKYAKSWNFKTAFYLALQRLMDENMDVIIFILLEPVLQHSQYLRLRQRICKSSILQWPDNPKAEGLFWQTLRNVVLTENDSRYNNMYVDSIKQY

[1] = read-out: TLR9 IC50; HEK-Blue cells overexpressing human TLR9, ODN2006 5 nM stimulation, SEAP reporter
[2] = read-out: TLR8 IC50; HEK-Blue cells overexpressing human TLR8, R848 15.9 μM stimulation, SEAP reporter

IC50 (human TLR9; [1]) | IC50 (human TLR7) | IC50 (human TLR8; [2]) | IC50 (human TLR9; read-out: TLR9 IC50; HEK-Blue cells overexpressing human TLR9; ODN2006 5 nM stimulation; SEAP reporter) | IC50 (human TLR8; read-out: TLR8 IC50; HEK-Blue cells overexpressing human TLR8; R848 15.9 μM stimulation; SEAP reporter) | IC50 (human TLR9) | IC50 (human TLR8) | Compound
133 nM | 7.3 nM | 49 nM |  |  |  |  | COc1cc(-c2[nH]c3cnc(C4CCC(N5CC6(COC6)C5)CC4)cc3c2C(C)C)cn2ncnc12 (stereo not drawn) [Example 309]
10300 nM | 19 nM | 174 nM |  |  |  |  | COc1cc(-c2[nH]c3cnc(N4CC5(C4)CN(C4CCOCC4)C5)c(F)c3c2C(C)C)cn2ncnc12 [Example 370]
> 50000 nM | 36 nM | 158 nM |  |  |  |  | Cc1cc(-c2[nH]c3cnc(C4CCN(CC(F)(F)F)CC4)c(F)c3c2C(C)C)cn2ncnc12 [Example 41]
1270 nM | 0.61 nM | 1.1 nM |  |  |  |  | Cc1cc(-c2[nH]c3cnc(C4CCC(N(C)C(C)C)CC4)c(F)c3c2C(C)C)cn2ncnc12 (stereo not drawn) [Example 261]
1860 nM | 1.3 nM | 1.6 nM |  |  |  |  | COc1cc(-c2[nH]c3cnc(C4CCN(CC5(C)COC5)CC4)c(F)c3c2C(C)C)cn2ncnc12 [Example 17]
5480 nM | 9 nM | 5.9 nM |  |  |  |  | COc1cc(-c2[nH]c3cnc(N4CC5(CN(CC6CCOCC6)C5)C4)c(F)c3c2C(C)C)cn2ncnc12 [Example 371]
842 nM | 3 nM | 3.6 nM |  |  |  |  | COc1cc(-c2[nH]c3cnc(C4CCC(N(C)CC(=O)N(C)C)CC4)c(F)c3c2C(C)C)cn2ncnc12 (stereo not drawn) [Example 79]
1010 nM | 0.76 nM | 0.83 nM |  |  |  |  | Cc1c(-c2[nH]c3cnc(C4CCC(N5CC6(COC6)C5)CC4)c(F)c3c2C(C)C)cn2ncnc2c1C (stereo not drawn) [Example 50]
3260 nM | 0.96 nM | 0.55 nM |  |  |  |  | COc1cc(-c2[nH]c3cnc(N4CCN(C(C)C)CC4)c(F)c3c2C(C)C)cn2ncnc12 [Example 384]
401 nM | 11 nM | 14 nM |  |  |  |  | COc1cc(-c2[nH]c3cnc(C4CCC(NC5COC5)CC4)c(C)c3c2C(C)C)cn2ncnc12 (stereo not drawn) [Example 242]
1790 nM | 0.49 nM | 0.52 nM |  |  |  |  | COc1cc(-c2[nH]c3cnc(N4CCC(NC5CCOCC5)CC4)c(C)c3c2C(C)C)cn2ncnc12 [Example 201]
2150 nM | 1.3 nM | 1 nM |  |  |  |  | COc1cc(-c2[nH]c3cnc(C4CCC(NCC(C)(C)C)CC4)c(F)c3c2C(C)C)cn2ncnc12 (stereo not drawn) [Example 162]
285 nM | 3.5 nM | 11 nM |  |  |  |  | COc1cc(-c2[nH]c3cnc(C4CCC(NC5CCOCC5)CC4)c(C)c3c2C(C)C)cn2ncnc12 (stereo not drawn) [Example 241]
 | 2.7 nM |  | 1160 nM | 3.6 nM |  |  | Cc1c(-c2[nH]c3cnc(C4CCC(N5CCC5)CC4)c(F)c3c2C(C)C)cn2ncnc2c1C (stereo not drawn) [Example 233]
447 nM | 2.5 nM | 5.6 nM |  |  |  |  | COc1cc(-c2[nH]c3cnc(C4CCC(N5CCC5)CC4)c(F)c3c2C(C)C)cn2ncnc12 (stereo not drawn) [Example 75]
866 nM | 53 nM | 273 nM |  |  |  |  | CNCC(=O)N1CCC(c2ncc3[nH]c(-c4cc(OC)c5ncnn5c4)c(C(C)C)c3c2C)CC1 [Example 12]
2450 nM | 1.8 nM | 3.4 nM |  |  |  |  | COCCN1CCC(c2ncc3[nH]c(-c4cc(C)c5ncnn5c4)c(C(C)C)c3c2F)CC1 [Example 183]
482 nM | 27 nM | 25 nM |  |  |  |  | COc1cc(-c2[nH]c3cnc(C4CCC(N5CC6(COC6)C5)C4)cc3c2C(C)C)cn2ncnc12 (stereo not drawn) [Example 141]
430 nM | 0.79 nM | 4.8 nM |  |  |  |  | COc1cc(-c2[nH]c3cnc(C4CCC(NC5COC5)CC4)c(C)c3c2C(C)C)cn2ncnc12 (stereo not drawn) [Example 243]
3630 nM | 4 nM | 2.3 nM |  |  |  |  | CCN1CC2(C1)CN(c1ncc3[nH]c(-c4cc(OC)c5ncnn5c4)c(C(C)C)c3c1F)C2 [Example 379]
4770 nM | 3.2 nM | 3.4 nM |  |  |  |  | Cc1cc(-c2[nH]c3cnc(C4CCN(CC5(C)COC5)CC4)c(F)c3c2C(C)C)cn2ncnc12 [Example 250]
2820 nM | 0.34 nM | 0.24 nM |  |  |  |  | CCN(C)C1CCN(c2ncc3[nH]c(-c4cc(OC)c5ncnn5c4)c(C(C)C)c3c2F)CC1 [Example 102]
550 nM | 4.7 nM | 89 nM |  |  |  |  | COc1cc(-c2[nH]c3cnc(C4CCNCC4)c(C)c3c2C(C)C)cn2ncnc12 [Example 1, 6-(3-isopropyl-4-methyl-5-(piperidin-4-yl)-1H-pyrrolo[2,3-c]pyridin-2-yl)-8-methoxy-[1,2,4] triazolo[1,5-a]pyridine]
> 50000 nM | 26 nM | 6.8 nM |  |  |  |  | COc1cc(-c2[nH]c3cnc(N4CCN(C5CCCOC5)CC4)c(F)c3c2C(C)C)cn2ncnc12 (single isomer, unassigned) [Example 386]
1410 nM | 16 nM | 16 nM |  |  |  |  | COc1cc(-c2[nH]c3cnc(N4CC5(C4)CN(C4CCN(C(C)C)CC4)C5)c(F)c3c2C(C)C)cn2ncnc12 [Example 377]
188 nM | 2.3 nM | 7.2 nM |  |  |  |  | COc1cc(-c2[nH]c3cnc(C4CCN(CCS(C)(=O)=O)CC4)c(C)c3c2C(C)C)cn2ncnc12 [Example 25]

Continued, compound first:

Compound | IC50 (human TLR9; [1]) | IC50 (human TLR7) | IC50 (human TLR8; [2]) | IC50 (human TLR9; read-out: TLR9 IC50; HEK-Blue cells overexpressing human TLR9; ODN2006 5 nM stimulation; SEAP reporter) | IC50 (human TLR8; read-out: TLR8 IC50; HEK-Blue cells overexpressing human TLR8; R848 15.9 μM stimulation; SEAP reporter) | IC50 (human TLR9) | IC50 (human TLR8)
COc1cc(-c2[nH]c3cnc(N4CCN(CC(=O)N5CCOCC5)C[C@H]4C)c(F)c3c2C(C)C)cn2ncnc12 [Example 448] | > 50000 nM | 28 nM | 22 nM |  |  |  | 
COc1cc(-c2[nH]c3cnc(N4CC5(C4)CN(C(C)C)C5)c(F)c3c2C(C)C)cn2ncnc12 [Example 373] | 5820 nM | 8.1 nM | 7.1 nM |  |  |  | 
CNC(=O)CN(C)C1CCC(c2cc3c(C(C)C)c(-c4cc(OC)c5ncnn5c4)[nH]c3cn2)CC1 (stereo not drawn) [Example 328] | 1390 nM | 11 nM | 60 nM |  |  |  | 
Cc1cc(-c2[nH]c3cnc(N4CCNCC4)cc3c2C(C)C)cn2ncnc12 [Example 301] | 2680 nM | > 3120 nM | > 3120 nM |  |  |  | 
Cc1c(-c2[nH]c3cnc(N4CCC(NC5CCOCC5)CC4)c(C)c3c2C(C)C)cn2ncnc2c1C [Example 205] | 600 nM | 1.2 nM | 0.55 nM |  |  |  | 
Cc1c(-c2[nH]c3cnc(N4CCC(NCC(C)(C)C)CC4)c(F)c3c2C(C)C)cn2ncnc2c1C [Example 167] | 4330 nM | 2.6 nM | 0.49 nM |  |  |  | 
Cc1cc(-c2[nH]c3cnc(C4CCN(C(C)C)CC4)c(F)c3c2C(C)C)cc(C)n1 [Example 97] | 1080 nM | 2.5 nM | 7.4 nM |  |  |  | 
COc1cc(-c2[nH]c3cnc(N4CCC(NC(=O)CN(C)C)CC4)cc3c2C(C)C)cn2ncnc12 [Example 344] | 257 nM | 1.7 nM | 3.5 nM |  |  |  | 
CNC(=O)CN1CCC(c2cc3c(C(C)C)c(-c4cn5ncnc5c(C)c4C)[nH]c3cn2)CC1 [Example 27] | 477 nM | 49 nM | 86 nM |  |  |  | 
COc1cc(-c2[nH]c3cnc(N4CCN(C(=O)CN(C)C)CC4)c(Cl)c3c2C(C)C)cn2ncnc12 [Example 304] | 505 nM | 1.5 nM | 2.2 nM |  |  |  | 
Cc1c(-c2[nH]c3cnc(C4CCC(N5CC6(COC6)C5)CC4)c(C)c3c2C(C)C)cn2ncnc2c1C (stereo not drawn) [Example 142] | 282 nM | 13 nM | 39 nM |  |  |  | 
Cc1c(-c2[nH]c3cnc(C4CCC(NC(C)C)CC4)c(C)c3c2C(C)C)cn2ncnc2c1C (stereo not drawn) [Example 277] | 265 nM | 5.5 nM | 13 nM |  |  |  | 
Cc1c(-c2[nH]c3cnc(C4CCC(NC(C)C)CC4)cc3c2C(C)C)cn2ncnc2c1C (stereo not drawn) [Example 318] | 846 nM | 6 nM | 21 nM |  |  |  | 
Cc1c(-c2[nH]c3cnc(C4CCC(NC56CC(C5)C6)CC4)c(F)c3c2C(C)C)cn2ncnc2c1C (stereo not drawn) [Example 239] | 15900 nM | 2.6 nM | 2.6 nM |  |  |  | 
Cc1cc(-c2[nH]c3cnc(N4CCC(N(C)CC(N)=O)CC4)c(F)c3c2C(C)C)cn2ncnc12 [Example 158] | 17500 nM | 1.4 nM | 2.1 nM |  |  |  | 
Cc1c(-c2[nH]c3cnc(C4CCC(NC5CCOC5)CC4)cc3c2C(C)C)cn2ncnc2c1C (stereo not drawn) [Example 349] | 344 nM | 1.1 nM | 3.6 nM |  |  |  | 
Cc1c(-c2[nH]c3cnc(N4CC5(C4)CN(C4COC4)C5)c(F)c3c2C(C)C)cn2ncnc2c1C [Example 400, 6-(4-fluoro-3-isopropyl-5-(6-(oxetan-3-yl)-2,6-diazaspiro[3.3]heptan-2-yl)-1H-pyrrolo[2,3-c]pyridin-2-yl)-7,8-dimethyl-[1,2,4]triazolo[1,5-a]pyridine] |  | 82 nM |  |  |  | > 50000 nM | 1.6 nM
CCN1CC2(C1)CN(c1ncc3[nH]c(-c4cn5ncnc5c(C)c4C)c(C(C)C)c3c1F)C2 [Example 408] | 12400 nM | 16 nM | 61 nM |  |  |  | 
Cc1c(-c2[nH]c3cnc(C4CCN(C5COC5)CC4)cc3c2C(C)C)cn2ncnc2c1C [Example 30] | 855 nM | 4.7 nM | 7.7 nM |  |  |  | 
Cc1c(N2CCC(N(C)C(C)C)CC2)ncc2[nH]c(-c3cc(C)c4ncnn4c3)c(C(C)C)c12 [Example 124] | 905 nM | 0.38 nM | 0.65 nM |  |  |  | 
Cc1c(-c2[nH]c3cnc(N4CCC(NC5COC5)CC4)c(F)c3c2C(C)C)cn2ncnc2c1C [Example 146] | 6660 nM | 1.1 nM | 0.46 nM |  |  |  | 
Cc1c(-c2[nH]c3cnc(N4CCN(CC5CC5)CC4)c(F)c3c2C(C)C)cn2ncnc2c1C [Example 430] | 6110 nM | 5.9 nM | 0.27 nM |  |  |  | 
